# Values joined by “and” are separate entries in the source; they are usually repeats but may differ in a detail not shown here. Identical values can stand only once.
# Columns and labels:
# [1] = Solubility of monomer 4 (observation at isolation); assay type: physicochemical
# Description: Synthesis of 3-[Diallyl{3-(diethoxyphosphoryl)propyl}ammonio]propane-1-sulfonate (4) preferably occurs by the following method: under N2 at 70° C., a solution of diethyl 3-(diallylamino)propylphosphonate 2 (15.0 g, 54.5 mmol) and 3 (7.0 g, 57.3 mmol) in CH3CN (30 cm^3) was stirred for 60 h. The residue, after removal of acetonitrile, was crystallized from acetone (30 cm^3) in the presence of small amount of methanol to give white crystals of 4 (19.5 g, 90%). The extremely hygroscopic monomer is insoluble in acetone but soluble in methanol or water. Mp 140-142° C. (closed capillary); (Found: C, 47.9; H, 8.4; N, 3.4; S, 7.8%. C16H32NO6PS requires C, 48.35; H, 8.11; N, 3.52; S, 8.07%); νmax (KBr): 3402, 2985, 2940, 1644, 1479, 1428, 1394, 1213, 1042, 967, 875, 786, 733 and 605 cm^−1; δH (D2O) 1.22 (6H, t, J=7 Hz), 1.86 (2H, m), 1.96 (2H, m), 2.11 (2H, m), 2.84 (2H, t, J=7.5 Hz), 3.23 (2H, apparent t, J=10 Hz), 3.31 (2H, apparent t, J=10 Hz), 3.85 (4H, d, J=7 Hz), 4.04 (4H, m), 5.64 (4H, m), 5.89 (2H, m), (HOD: 4.65); δC (D2O) 15.83 (s, PCH2CH2), 16.47 (d, 2C, Me, ^3J (PC) 4.1 Hz), 18.29 (s, SCH2CH2), 21.45 (d, PCH2, ^1J (PC) 143 Hz), 47.97 (s, SCH2CH2CH2), 57.26 (s, SCH2CH2CH2), 58.32 (d, PCH2CH2CH2, ^3J (PC) 16.4 Hz), 61.72 (2C, ═CH—CH2, s), 64.38 (d, 2C, OCH2CH3, ^2J (PC) 6.2 Hz), 124.40 (2C, s, CH2=CH), 129.80 (2C, s, CH2═CH) (dioxane: 67.40 ppm); δP (202 MHz, D2O): 31.01 (s). DEPT 135 NMR analysis was carried out to assign the ^13C signals.
# [2] = Potentiometric titration for protonation (basicity) constants; assay type: physicochemical; conditions: 23° C.; for Log K1^o (first protonation), Average / Log K2^o (second protonation), Average / n1 (first protonation), Average / n2 (second protonation), Average: average of runs 1-3, SD in last digit in parentheses
# Description: Protonation constants (K1 and K2) of polymer 8 [ZH2^±=] and its corresponding monomer unit 11 [ZH2^±=] were determined by potentiometric titrations which were carried out in atmosphere of N2 in CO2-free water as described elsewhere using a solution (Tables 3 and 4) of PZDA 6 [ZH2^±] or monomer form 11 [ZH2^±=] in 200 cm^3 of salt-free water or 0.1 N NaCl (S. A. Ali, et al., J. Polym. Sc. A: Polym. Chem. 2010, 48, 5693-5703—incorporated herein by reference in its entirety). The Log K1 and Log K2 of the —P(═O)O^= (in 8 or 11) are calculated at each pH value by the Henderson-Hasselbalch eq 2 (Scheme 1) where a is the ratio [ZH^±−]eq/[Z]o and [ZH2^±]eq/[Z]o, respectively. The [ZH^±−]eq and [ZH2^±]eq represent the respective equilibrium concentrations of the first and second protonated species whereas [Z]o describes the initial concentration of repeating units.
# For the determination of the second step protonation constant (log K2) of —P(═O)(OH)O^− (i.e. [ZH^±−]) using the titration of polymer 6 [ZH2^±] with NaOH, [Z]o and [ZH2^±]eq are related by [ZH2^±]eq=[Z]o−COH^−−[H^+]+[OH^−], where COH^− represent the added NaOH concentration. The equilibrium [H^+] and [OH^−] values were calculated from the pH value (W. K. Felty, J. Chem. Educ. 1978, 55, 576; R. Barbucci, et al., Macromolecules 1981, 14, 1203-1209—each incorporated herein by reference in its entirety). The first step protonation constant (log K1) involving the protonation of —P(═O)(O^−)2 (i.e. [Z^±=]) using volume of the titrant after deducting the equivalent volume from the total volume. In this case, α represents the ratio [ZH^±−]eq/[Z]o whereby [ZH^±−]eq equals [Z]o−COH^−−[H^+]+[OH^−]. For the titration of 11 [Z^±=] with HCl, the protonated species' concentration is given by: [ZHi=1,2]eq═CH^+−[H^+]+[OH^−].
# Eq. 3 (Scheme 1) describes the apparent basicity constants of —P(═O)(O^−)2 where log K^o=pH at α=0.5 and n=1 in the case of sharp basicity constants.
# The ‘n’ and log K^o as the respective slope and intercept were determined from the linear regression fit of pH vs. log [(1−α)/α)]. Protonation at the same time of the three basic sites: —PO3^=(log K1≈+8), —PO3H^− (log K2≈+3) and —SO3^−(log K3≈−2.1) (J. P. Guthrie, Can. J. Chem. 1978, 56, 2342-2354—incorporated herein by reference in its entirety) is not likely due to differences of their basicity constants by about 5 orders of magnitude (vide infra). Note that basicity constant log K of any base B is the pKa of its conjugate acid BH^+.
# [3] = 0.1M NaCl, single runs (polymer runs 1, 2 in the presence of 1.5 mL of 0.1222M HCl)
"Log K1^o (first protonation), Average ([2]; 0.1M NaCl)","Log K2^o (second protonation), Average ([2]; 0.1M NaCl)","n1 (first protonation), Average ([2]; 0.1M NaCl)","n2 (second protonation), Average ([2]; 0.1M NaCl)","Log K1^o (first protonation) ([2]; 0.1M NaCl, single runs)","n1 (first protonation) ([2]; 0.1M NaCl, single runs)","Log K2^o (second protonation) [2, 3]","n2 (second protonation) [2, 3]","Log K1^o (first protonation), Average ([2]; Salt-Free water)","Log K2^o (second protonation), Average ([2]; Salt-Free water)","n1 (first protonation), Average ([2]; Salt-Free water)","n2 (second protonation), Average ([2]; Salt-Free water)","Log K1^o (first protonation) ([2]; Salt-Free water, single runs)","Log K2^o (second protonation) ([2]; Salt-Free water, single runs)","n1 (first protonation) ([2]; Salt-Free water, single runs)","n2 (second protonation) ([2]; Salt-Free water, single runs)",Compound,solubility ([1]; acetone),solubility ([1]; methanol),solubility ([1]; water)
–,–,–,–,–,–,–,–,–,–,–,–,–,–,–,–,"C=CC[N+](CC=C)(CCCP(=O)(OCC)OCC)CCCS(=O)(=O)[O-] [Monomer 4, 3-[diallyl{3-(diethoxyphosphoryl)propyl}ammonio]propane-1-sulfonate]",insoluble,soluble,soluble
7.12 (1),2.90 (5),1.03 (1),1.01 (4),7.12 and 7.11 and 7.13,1.03 and 1.04,2.91 and 2.84 and 2.94,0.993 and 1.06 and 0.990,7.53,2.74 (2),1.04 (1),1.02 (3),7.50 and 7.54 and 7.55,2.75 and 2.72,1.04 and 1.05,1.02 and 0.984 and 1.05,C=CC[N+](CC=C)(CCCP(=O)([O-])[O-])CCCS(=O)(=O)[O-].[Na+].[Na+] [Monomer 11],–,–,–

# — patent US9309336B2, “Synthesis and antiscalant behavior of a novel polyzwitterionic acid” (King Fahd University of Petroleum and Minerals, priority 2013, dated 2016)
